According to the NIST ThermoML archive (doi:10.1016/j.jct.2007.01.017):
Numbers after ± are expanded uncertainties.

Columns and labels:
[1] = Liquid; for mass density: 298.15 K, 101.33 kPa; for vapor or sublimation pressure: 313.15 K
[2] = excess molar enthalpy (molar enthalpy of mixing); xn = mol fraction of the nth substance listed; conditions: 101 kPa, Liquid, Flow calorimetry

CC(=O)N(C)C [N,N-dimethylethanamide]
Conditions | mass density [kg/m3]
[1] | 936.34 ± 0.81

CN(C)C=O [dimethylformamide]
Conditions | mass density [kg/m3]
[1] | 943.81 ± 0.78

CCCCCl [1-chlorobutane] + CC(=O)N(C)C
[2]
Conditions | excess molar enthalpy [kcal/mol]
298.15 K, x2 = 0.06 | 0.0163 ± 0.0012
298.15 K, x2 = 0.111 | 0.0337 ± 0.0012
298.15 K, x2 = 0.212 | 0.0583 ± 0.0012
298.15 K, x2 = 0.312 | 0.0748 ± 0.0012
298.15 K, x2 = 0.412 | 0.0846 ± 0.0012
298.15 K, x2 = 0.511 | 0.0868 ± 0.0012
298.15 K, x2 = 0.61 | 0.0832 ± 0.0012
298.15 K, x2 = 0.708 | 0.0729 ± 0.0012
298.15 K, x2 = 0.805 | 0.0559 ± 0.0012
298.15 K, x2 = 0.902 | 0.0311 ± 0.0012
298.15 K, x2 = 0.95 | 0.0165 ± 0.0012
308.15 K, x2 = 0.057 | 0.0163 ± 0.0012
308.15 K, x2 = 0.106 | 0.0335 ± 0.0012
308.15 K, x2 = 0.206 | 0.0588 ± 0.0012
308.15 K, x2 = 0.305 | 0.076 ± 0.0012
308.15 K, x2 = 0.404 | 0.0865 ± 0.0012
308.15 K, x2 = 0.503 | 0.0896 ± 0.0012
308.15 K, x2 = 0.602 | 0.0863 ± 0.0012
308.15 K, x2 = 0.7 | 0.0758 ± 0.0012
308.15 K, x2 = 0.799 | 0.0581 ± 0.0012
308.15 K, x2 = 0.897 | 0.0332 ± 0.0012
308.15 K, x2 = 0.946 | 0.0172 ± 0.0012
308.15 K, x2 = 0.966 | 0.0098 ± 0.0012

CCCCCCCl [1-chlorohexane] + CC(=O)N(C)C
excess molar enthalpy [kcal/mol], [2]
Conditions | 298.15 K | 308.15 K
x2 = 0.059 | – | 0.0253 ± 0.00143
x2 = 0.064 | 0.0251 ± 0.00143 | –
x2 = 0.108 | – | 0.0488 ± 0.00143
x2 = 0.113 | 0.0476 ± 0.00143 | –
x2 = 0.206 | – | 0.0935 ± 0.00143
x2 = 0.211 | 0.0908 ± 0.00143 | –
x2 = 0.304 | – | 0.124 ± 0.00143
x2 = 0.309 | 0.119 ± 0.00143 | –
x2 = 0.402 | – | 0.144 ± 0.00167
x2 = 0.407 | 0.137 ± 0.00143 | –
x2 = 0.501 | – | 0.153 ± 0.00167
x2 = 0.505 | 0.1458 ± 0.00143 | –
x2 = 0.6 | – | 0.151 ± 0.00167
x2 = 0.603 | 0.143 ± 0.00143 | –
x2 = 0.698 | – | 0.136 ± 0.00143
x2 = 0.701 | 0.129 ± 0.00143 | –
x2 = 0.798 | 0.102 ± 0.00143 | 0.108 ± 0.00143
x2 = 0.896 | 0.0588 ± 0.00143 | –
x2 = 0.897 | – | 0.0626 ± 0.00143
x2 = 0.945 | 0.0315 ± 0.00143 | –
x2 = 0.947 | – | 0.0335 ± 0.00167
x2 = 0.967 | – | 0.0201 ± 0.00167

CCCCCCCCCl [1-chlorooctane]
Conditions | mass density [kg/m3]
[1] | 868.98 ± 2.1

CCCCCCCCCl [1-chlorooctane] + CN(C)C=O
[2]
Conditions | excess molar enthalpy [kcal/mol]
298.15 K, x2 = 0.064 | 0.0416 ± 0.00215
298.15 K, x2 = 0.113 | 0.0863 ± 0.00215
298.15 K, x2 = 0.21 | 0.163 ± 0.00215
298.15 K, x2 = 0.308 | 0.212 ± 0.00215
298.15 K, x2 = 0.405 | 0.2459 ± 0.00215
298.15 K, x2 = 0.502 | 0.2598 ± 0.00215
298.15 K, x2 = 0.6 | 0.256 ± 0.00215
298.15 K, x2 = 0.698 | 0.2337 ± 0.00215
298.15 K, x2 = 0.795 | 0.189 ± 0.00215
298.15 K, x2 = 0.893 | 0.117 ± 0.00215
298.15 K, x2 = 0.942 | 0.0633 ± 0.00239
308.15 K, x2 = 0.069 | 0.0509 ± 0.00215
308.15 K, x2 = 0.117 | 0.092 ± 0.00191
308.15 K, x2 = 0.212 | 0.162 ± 0.00215
308.15 K, x2 = 0.309 | 0.2192 ± 0.00215
308.15 K, x2 = 0.406 | 0.2543 ± 0.00215
308.15 K, x2 = 0.503 | 0.2696 ± 0.00239
308.15 K, x2 = 0.601 | 0.2665 ± 0.00239
308.15 K, x2 = 0.699 | 0.2433 ± 0.00215
308.15 K, x2 = 0.798 | 0.198 ± 0.00215
308.15 K, x2 = 0.898 | 0.12 ± 0.00215
308.15 K, x2 = 0.948 | 0.0669 ± 0.00263
308.15 K, x2 = 0.968 | 0.0399 ± 0.00287

CCCCCl [1-chlorobutane]
[1]
Conditions | mass density [kg/m3] | vapor or sublimation pressure [kPa]
– | 880.72 ± 0.22 | 25.72 ± 0.036

CCCCCCCCCl [1-chlorooctane] + CC(=O)N(C)C
[2]
Conditions | excess molar enthalpy [kcal/mol]
298.15 K, x2 = 0.067 | 0.0325 ± 0.00167
298.15 K, x2 = 0.117 | 0.0652 ± 0.00167
298.15 K, x2 = 0.215 | 0.124 ± 0.00167
298.15 K, x2 = 0.313 | 0.162 ± 0.00167
298.15 K, x2 = 0.411 | 0.186 ± 0.00191
298.15 K, x2 = 0.508 | 0.1981 ± 0.00191
298.15 K, x2 = 0.606 | 0.1962 ± 0.00191
298.15 K, x2 = 0.703 | 0.179 ± 0.00191
298.15 K, x2 = 0.8 | 0.146 ± 0.00191
298.15 K, x2 = 0.897 | 0.0884 ± 0.00191
298.15 K, x2 = 0.945 | 0.0483 ± 0.00191
308.15 K, x2 = 0.061 | 0.0323 ± 0.00167
308.15 K, x2 = 0.11 | 0.0655 ± 0.00167
308.15 K, x2 = 0.207 | 0.127 ± 0.00167
308.15 K, x2 = 0.305 | 0.168 ± 0.00191
308.15 K, x2 = 0.403 | 0.1953 ± 0.00191
308.15 K, x2 = 0.501 | 0.2089 ± 0.00191
308.15 K, x2 = 0.6 | 0.2082 ± 0.00191
308.15 K, x2 = 0.699 | 0.1912 ± 0.00191
308.15 K, x2 = 0.798 | 0.156 ± 0.00191
308.15 K, x2 = 0.898 | 0.0946 ± 0.00191
308.15 K, x2 = 0.948 | 0.0516 ± 0.00215
308.15 K, x2 = 0.968 | 0.0301 ± 0.00239

CCCCCCCl [1-chlorohexane] + CN(C)C=O
[2]
Conditions | excess molar enthalpy [kcal/mol]
298.15 K, x2 = 0.058 | 0.0385 ± 0.00167
298.15 K, x2 = 0.107 | 0.0731 ± 0.00167
298.15 K, x2 = 0.205 | 0.13 ± 0.00167
298.15 K, x2 = 0.303 | 0.166 ± 0.00167
298.15 K, x2 = 0.402 | 0.1917 ± 0.00191
298.15 K, x2 = 0.5 | 0.2024 ± 0.00191
298.15 K, x2 = 0.598 | 0.1965 ± 0.00191
298.15 K, x2 = 0.697 | 0.177 ± 0.00191
298.15 K, x2 = 0.796 | 0.139 ± 0.00191
298.15 K, x2 = 0.894 | 0.0803 ± 0.00167
298.15 K, x2 = 0.944 | 0.0418 ± 0.00191
308.15 K, x2 = 0.062 | 0.0344 ± 0.00191
308.15 K, x2 = 0.111 | 0.0755 ± 0.00167
308.15 K, x2 = 0.208 | 0.133 ± 0.00167
308.15 K, x2 = 0.305 | 0.172 ± 0.00191
308.15 K, x2 = 0.403 | 0.1974 ± 0.00191
308.15 K, x2 = 0.501 | 0.2079 ± 0.00191
308.15 K, x2 = 0.6 | 0.2027 ± 0.00191
308.15 K, x2 = 0.699 | 0.182 ± 0.00191
308.15 K, x2 = 0.798 | 0.143 ± 0.00191
308.15 K, x2 = 0.897 | 0.0834 ± 0.00191
308.15 K, x2 = 0.947 | 0.0437 ± 0.00191
308.15 K, x2 = 0.967 | 0.0258 ± 0.00215

CCCCCCCl [1-chlorohexane]
[1]
Conditions | mass density [kg/m3] | vapor or sublimation pressure [kPa]
– | 873.21 ± 1 | 2.857 ± 0.021

CCCCCl [1-chlorobutane] + CN(C)C=O
excess molar enthalpy [kcal/mol], [2]
Conditions | 298.15 K | 308.15 K
x2 = 0.056 | 0.0294 ± 0.00143 | –
x2 = 0.058 | – | 0.028 ± 0.00143
x2 = 0.106 | 0.0571 ± 0.00143 | –
x2 = 0.108 | – | 0.0552 ± 0.00143
x2 = 0.207 | 0.0966 ± 0.00143 | 0.0956 ± 0.00143
x2 = 0.306 | – | 0.121 ± 0.00143
x2 = 0.308 | 0.122 ± 0.00143 | –
x2 = 0.404 | – | 0.136 ± 0.00143
x2 = 0.407 | 0.135 ± 0.00143 | –
x2 = 0.503 | – | 0.139 ± 0.00143
x2 = 0.507 | 0.136 ± 0.00143 | –
x2 = 0.602 | – | 0.132 ± 0.00143
x2 = 0.606 | 0.129 ± 0.00143 | –
x2 = 0.701 | – | 0.115 ± 0.00143
x2 = 0.705 | 0.112 ± 0.00143 | –
x2 = 0.799 | – | 0.087 ± 0.00143
x2 = 0.803 | 0.0841 ± 0.00143 | –
x2 = 0.898 | – | 0.048 ± 0.00143
x2 = 0.901 | 0.0459 ± 0.00143 | –
x2 = 0.947 | – | 0.0246 ± 0.00143
x2 = 0.95 | 0.0234 ± 0.00143 | –
x2 = 0.967 | – | 0.0146 ± 0.00143
